In patent publication US20240033233A1, “COMPOSITIONS AND METHODS FOR DELIVERING PHARMACEUTICAL AGENTS” (Arizona Board of Regents on Behalf of the University of …, priority 2020, published 2024):
Like-named read-outs stand apart in the source and are kept apart here.

What was measured:
[1] = test system: p-p38 signal in EpiDerms; assay: p-p38 signal after topical resatorvid with or without solar simulated light; format: cell-based, human; conditions: constitutive or UV-induced
[2] = test system: primary normal epidermal keratinocytes (NHEK); assay: In vitro cell dose-response (resazurin viability) in 2-D culture, NHEK; format: cell-based, human; conditions: 72 h exposure
Protocol: (§1) The effects of raw TAK-242 powder on the viability of human representative human keratinocyte cell lines exposed to different concentrations were tested. HaCaT (a human transformed keratinocyte from histologically normal skin cell line) and NHEK (a primary normal epidermal keratinocyte cell line) were used as models of the human epidermis, which express keratinocytes in the stratum basale and then move up the final barrier layer of the skin, which is the stratum corneum. The HaCaT cells were grown in Dulbecco's modified Eagle's medium (DMEM), Optimized 1×, 10% (v/v) fetal bovine serum (FBS), and Pen-Strep (100 units/mL penicillin, 100 μg/mL) in a humidified incubator at 37° C. and 5% CO2. NHEK cells were grown NHEK- growth medium provided by MatTek (Ashland, MA, USA) in a humidified incubator at 37° C. and 5% CO2.
After confluence, HaCaT and NHEK cells were seeded in 96-black well plate at a concentration of 5,000 cells in 100 μL of media per well. After 48 hours, cells were then incubated for 48 h to allow attachment to the surface of the plates. Cells were then exposed to different concentrations of TAK-242. […] Fluorescence intensity of resofurin was detected at 544 nm (excitation) and 590 nm (emission) using the Molecular Devices® SpectraMax® M3 Multi-Mode Microplate Reader (Sunnyvale, CA, USA). The relative viability of the cells was calculated as followed by equation 1: […]

[3] = cited from earlier work
[4] = Direct incorporation of resatorvid powder into cream bases (solubility/compatibility); format: physicochemical; conditions: room temperature 30 minutes to 1 hour
Protocol: The solubility of the drug as powder was tested on both Dermabase cream as well as PENcream. […] It was a clear indication that the drug would have to be pre-dissolved in a solution before incorporating into the creams.
A variety of cream/lotion formulations were prepared. One gram of Dermabase cream and 0.1 gram of resatorvid were compounded together. […] One gram of PENcream was compounded with 0.1 grams of resatorvid. After compounding the mixture sat for 1 hour at room temp. […] PEG 400 USP and PEG 600 USP at volumes of 0.5 mL, 1 mL and 2 mL were used with 1 gram of cream base. […] PEG 600 USP changed the cream consistency to a lotion for each cream at added volumes 0.5 mL, 1 mL and 2 mL.
(§2) Seven platforms were analyzed for compatibility with TAK-242. The platforms were DermaBASE cream (cream and lotion), PENcream (cream), PEG-400 solution, PG solution, 1% w/v Carbomer 934P resin gel at pH˜7, 2% w/v Sodium hyaluronate gel/serum and 20% w/v Pluronic F127 gel. Solubility of TAK-242 was determined at concentrations ranging from 0.1-5% w/v using PBS (pH=7.41), 0.9% normal saline (NS), HPLC grade ethanol, PEG-400 and PG as solvents. The following step was to test if TAK-242 could be directly incorporated into the platforms mentioned above via non-sterile compounding to determine if the drug would need to be pre-dissolved before incorporation. Determination of how much volume of PEG-400 or PG could be incorporated into the creams and gels without losing consistency while maintaining homogeneity was examined; 1 g of base (cream or gel) was weighed out and was compounded with PEG-400 or PG (500 μL-1000 μL). Drug was then dissolved in appropriate determined volume of compatible solvent and sonicated for 60 minutes, then it was prepared via non-sterile compounding technique and formulations were examined for physical appearance (consistency, homogeneity, visible precipitation, phase separation, compatibility). The only formulation that was different was the Pluronic F127 as everything was mixed in as a liquid at 4° C. and the solution would then solidify at room temperature […] to create the gel which was then mixed thoroughly until homogenous.

[5] = test system: UV-induced AP-1 activation; conditions: acetone solution of resatorvid, mouse epidermis; cited from earlier work
[6] = In vitro oil-water partitioning coefficient (Log-P), 1-octanol/PBS; format: physicochemical; conditions: for logP: 1-octanol/PBS; for partition coefficient (Log-P): range over pH 6.5, 7.1, 8.8
Protocol: TAK242 raw powder was weighed out (0.003 g) and placed in 2 dram ambered colored glass vials containing equal volumes (1.5 mL) of 1-octanol and PBS (1×, pH=7.4). Various solutions were made, and pH was adjusted and maintained at 6.5, 7.1, 8.8, adjustments were made using 0.1 M HCl solution and 0.1 M NaOH solution. […] The vials were rotated using a Barnstead/Thermolyne Labquake shaker (Dubuque, IA, USA) for 24 hours and then left undisturbed in a vertical position for an additional 24 hours for phase separation between the aqueous and non-aqueous layers. A sample of each layer was carefully withdrawn and then analyzed by a validated HPLC method as describe in the HPLC analysis section under methods.

[7] = test system: human transformed keratinocytes (HaCaT); assay: In vitro cell dose-response (resazurin viability) in 2-D culture, HaCaT; format: cell-based; conditions: 72 h exposure
Protocol: as §1
After confluence, HaCaT and NHEK cells were seeded in 96-black well plate at a concentration of 5,000 cells in 100 μL of media per well. After 48 hours, cells were then incubated for 48 h to allow attachment to the surface of the plates. Cells were then exposed to different concentrations of TAK-242. The drug solutions were prepared by dissolving raw TAK-242 powder in 5% v/v DMSO and DMEM media to make a solution at 1×. A volume of 100 μL of drug solution was added to each well. After 72 h of exposure and incubation at 37° C. and 5% CO2, 20 μL of 20 μM resazurin sodium salt were added to each well and incubated for 4 h. Fluorescence intensity of resofurin was detected at 544 nm (excitation) and 590 nm (emission) using the Molecular Devices® SpectraMax® M3 Multi-Mode Microplate Reader (Sunnyvale, CA, USA). The relative viability of the cells was calculated as followed by equation 1: […]

[8] = Solubility of resatorvid in solvents (sonication, visual observation); format: physicochemical
Protocol: To determine solubility of resatorvid in a liquid formulation, a variety of solvents were tested: phosphate buffered saline, NS, ethanol, and PEG400, all with resatorvid at a concentration of 0.1% w/v and the solutions were sonicated for 1 hour at room temperature.
In addition, a solution of 5% w/v resatorvid in EtOH 140 proof was prepared (1 mL of ETOH and 50 mg of resatorvid). The solution was not translucent and became opaque/cloudy and there was still drug undissolved floating around.
Solutions were made with w/v TAK242+PEG600 and 5% w/v TAK242+100% Acetone. All three solutions were sonicated at room temperature for 1 hour. […] As the solution began to adjust to ambient temperature it started to solidify into a white thick substance almost like lard.
Further experiments were conducted using glycerol as the solvent. 0.0504 g of TAK-242 was weighed out to make a 5.04% w/v solution in 1 mL of glycerol, USP grade. […]. The solution was then sonicated for 60 minutes at 37° C. […] Images were taken at each to document the outcome.
A 5% w/v solution of resatorvid (50mg) and PEG 400 USP (1 mL) was prepared.
as §2

[9] = cited from earlier work; remark: listed apart in the source
[10] = UV-Vis spectra of resatorvid solution in PEG400 on storage; format: physicochemical; conditions: 0.1% w/v in PEG400, 4 days at 25° C.
Excerpt: The solvents that were used were PEG400, EtOH 140 proof, PBS pH 7.4, Acetonitrile, NS, and MeOH. PEG600 was not used as it was too thick. At a concentration of 0.1% w/v it was observed that resatorvid was soluble in PEG400, acetonitrile and EtOH 140 proof and HPLC grade MeOH. 0.01% w/v solutions were also made for some samples to show an acceptable UV-Vis spectra. Resatorvid was not soluble in NS or PBS pH 7.4.
A Molecular Devices® SpectraMax® M3 Multi-Mode Microplate Reader (Sunnyvale, CA, USA) was used to perform UV/Vis spectroscopy. The wavelength range was 190 through 290 nm. A 0.1% w/v solution of TAK-242 in HPLC grade methanol, PEG-400, HPLC grade ethanol, HPLC grade acetonitrile, PBS (pH=7.4) and 0.85% w/v normal saline were made and analyzed under UV visible spectroscopy on a 96-wellplate black clear bottom.

[11] = cited from earlier work; remark: listed apart in the source
[12] = series of increasing concentrations

- solubility of drug powder in cream ([4]; Dermabase cream): unable to dissolve in the cream
- solubility of drug powder in cream ([4]; Dermabase cream, listed as Resatorvid (TAK-242)): undissolved and incompatible with creams
- solubility of drug powder in cream ([4]; PENcream): undissolved drug
- solubility of drug powder in cream ([4]; PENcream, listed as Resatorvid (TAK-242)): undissolved and incompatible with creams
- logP ([6]; as quoted, conditions not stated, read-out: log P): 1.54
- logP ([6]; pH 6.5, At 35° C., pH = 6.5, read-out: Experimental (Log P) Average ± SD): 1.65 ± 0.029
- logP ([6]; pH 6.5, At Room temperature/ambient temperature, pH = 6.5, read-out: Experimental (Log P) Average ± SD): 1.58 ± 0.019
- logP ([6]; pH 7.1, At 35° C., pH = 7.1, read-out: Experimental (Log P) Avg. Log-P ± SD): 1.68 ± 0.013
- logP ([6]; pH 7.1, At Room temperature/ambient temperature, pH = 7.1, read-out: Experimental (Log P) Avg. Log-P ± SD): 1.54 ± 0.149
- logP ([6]; pH 8.8, At 35° C., pH = 8.8, read-out: Experimental (Log P) Avg. Log-P ± SD): 0.94 ± 0.023
- logP ([6]; pH 8.8, At Room temperature/ambient temperature, pH = 8.8, read-out: Experimental (Log P) Avg. Log-P ± SD): 0.88 ± 0.06
- partition coefficient (Log-P) ([6]; at 35° C.): 0.94-1.68
- partition coefficient (Log-P) ([6]; at 37° C.): 0.88-1.58
- solubility ([8]; 0.1% w/v in EtOH 140 proof): soluble
- solubility ([8]; 0.1% w/v in EtOH 140 proof, listed as TAK-242): completely dissolved
- solubility ([8]; 0.1% w/v in HPLC grade MeOH): soluble
- solubility ([8]; 0.1% w/v in NS (normal saline)): not soluble
- solubility ([8]; 0.1% w/v in NS (normal saline), listed as TAK-242): failed to dissolve
- solubility ([8]; 0.1% w/v in PBS pH 7.4): not soluble
- solubility ([8]; 0.1% w/v in PBS pH 7.4, listed as TAK-242): failed to dissolve
- solubility ([8]; 0.1% w/v in PEG400): soluble
- solubility ([8]; 0.1% w/v in acetonitrile): soluble
- solubility ([8]; 5% w/v in 100% acetone, sonicated at room temperature 1 hour): dissolved the drug completely
- solubility ([8]; 5% w/v in EtOH 140 proof): only partially dissolved
- solubility ([8]; 5% w/v in PEG 400 USP): no signs of undissolved drug
- solubility ([8]; glycerol USP, 5.04%, 2.5%, 1.25% and 0.625% w/v, sonicated 60 minutes at 37° C.): did not dissolve
- solubility ([8]; w/v in PEG600 (concentration not given), sonicated at room temperature 1 hour): dissolved the drug completely
- stability of drug in solution (UV-VIS spectra) [10]: no changes in the drug
SMILES: CCOC(=O)C1=CCCC[C@H]1S(=O)(=O)Nc1ccc(F)cc1Cl [Resatorvid]
- p-p38 signal [1]: potently blocked
- % cell viability ([2]; all concentrations): ~100%
- toxicity [2, 12]: did not show any significant toxicity
- experimentally determined pKa reported [3]: 8.0-8.1
- UV-induced AP-1 activation [5]: blocked
- % cell viability ([7]; 1000 μM): ~70%
- % cell viability ([7]; all concentrations except 1000 μM): ~100%
- toxicity [7, 12]: did not show any significant toxicity
- reported Log P [9]: 2.53
- reported solubility ([11]; in DMSO): 10 mg/mL
- reported solubility ([11]; in EtOH): 20 mg/mL
- reported solubility ([11]; in H2O): sparingly soluble
